Results published in patent US20230172205A1 (priority 2020, published 2023).

Key:
[1] = test system: Phakopsora pachyrhizi, strain with amino acid substitution F129L in the mitochondrial cytochrome b protein; assay: Protective control of soybean rust on soybeans (PHAKPA P2); assay type: in vivo; conditions: for PHAKPA (F129L) Disease level (%), P2 at 16 ppm: Table C4, untreated >90
[2] = test system: Phakopsora pachyrhizi, strain with amino acid substitution F129L in the mitochondrial cytochrome b protein; assay: Protective control of soybean rust on soybeans (PHAKPA P6); assay type: in vivo
[3] = test system: Alternaria solani, Qo inhibitor-resistant isolate containing F129L in the mitochondrial cytochrome b protein; assay: Micro titer plate test, activity against Alternaria solani causing early blight (ALTESO), F129L; assay type: cell-based; conditions: Table C11a; 0.016 ppm
Pyricularia oryzae = assay: microbe, parasite or virus in culture; assay type: cell-based; conditions: 0.016 ppm
[4] = protective P2, 4 ppm, soybean rust F129L strain
[5] = protective P2, 16 ppm, soybean rust F129L strain
[6] = Table C4, 16 ppm, untreated >85
[7] = protective P6, 4 ppm, soybean rust F129L strain
[8] = protective P6, 16 ppm, soybean rust F129L strain
[9] = Table C2, protective, inoculation six days after spraying, 4 ppm, % diseased leaf area on soybean, untreated 99
[10] = Table 1, protective P2, 4 ppm, F129L strain
[11] = Table 1, protective P2, 16 ppm, F129L strain
[12] = Table 1, protective P6, 4 ppm, F129L strain
[13] = Table 1, protective P6, 16 ppm, F129L strain

| SMILES | % PHAKPA (F129L) Disease level, P2 at 4 ppm [1, 10] | % PHAKPA (F129L) Disease level, P2 at 16 ppm [1, 11] | % PHAKPA (F129L) Disease level, P6 at 4 ppm [2, 12] | % PHAKPA (F129L) Disease level, P6 at 16 ppm [2, 13] | also measured |
| --- | --- | --- | --- | --- | --- |
| CO/N=C(/C(=O)OC)c1cccc(C)c1CO/N=C(\C)c1ccccc1F [Ex. 1, Methyl (2E)-2-[2-[[(E)-3-(2-fluorophenyl)ethylideneamino]oxymethyl]-3-methyl-phenyl]-2-methoxyimino-acetate] |  |  |  |  | PHAKPA (F129L) Disease level (%), P2 at 16 ppm ([1]; 16 ppm): 28%; % PHAKPA (F129L) Disease level, P2 at 4 ppm [1, 4]: 80%; % PHAKPA (F129L) Disease level, P2 at 16 ppm [1, 5]: 27%; PHAKPA (F129L) Disease level (%), P6 at 16 ppm [2, 6]: 47%; % PHAKPA (F129L) Disease level, P6 at 4 ppm [2, 7]: 90%; % PHAKPA (F129L) Disease level, P6 at 16 ppm [2, 8]: 56% |
| CNC(=O)/C(=N/OC)c1cccc(C)c1CO/N=C(\C)c1cccc(C(F)(F)F)c1 [Ex. 8] |  |  |  |  | Fungal growth (%) ALTESO F129L [3]: 52%; Fungal growth (%) PYRIOR (Pyricularia oryzae; Table C11a): 13%; PHAKPA (F129L) Disease level (%) P6 at 4 ppm ([2]; P6 at 4 ppm, untreated 75%): 1%; PHAKPA (F129L) Disease level (%) P6 at 4 ppm [2, 9]: 13% |
| CO/N=C(/C(=O)OC)c1cccc(C)c1CO/N=C(\C)c1cccc(C(F)(F)F)c1 [Ex. 9] |  |  |  |  | PHAKPA (F129L) Disease level (%) P2 at 4 ppm ([1]; Table C1, protective, inoculation 2 days after spraying, 4 ppm, % diseased leaf area on soybean): 35%; PHAKPA (F129L) Disease level (%) P2 at 4 ppm ([1]; Table C7b, 4 ppm, untreated 92): 6%; Fungal growth (%) PYRIOR (Pyricularia oryzae; Table C9): 38%; PHAKPA (F129L) Disease level (%), P6 at 16 ppm ([2]; P6 at 16 ppm, untreated 75%): 1%; PHAKPA (F129L) Disease level (%), P6 at 16 ppm ([2]; Table C1, protective, inoculation six days after spraying, 16 ppm, % diseased leaf area on soybean): 4% |
| CO/N=C(/C(=O)OC)c1cccc(C)c1CO/N=C(\C)c1cccc(OC(F)(F)F)c1 [Ex. 28] |  |  |  |  | PHAKPA (F129L) Disease level (%), P2 at 16 ppm ([1]; 16 ppm): 30%; % PHAKPA (F129L) Disease level, P2 at 16 ppm [1, 5]: 0%; PHAKPA (F129L) Disease level (%), P6 at 16 ppm [2, 6]: 18%; % PHAKPA (F129L) Disease level, P6 at 16 ppm [2, 8]: 0% |
| CO/N=C(/C(=O)OC)c1cccc(C)c1CO/N=C(\C)c1cccc(C)c1 [Ex. 76] |  |  |  |  | PHAKPA (F129L) Disease level (%), P6 at 16 ppm ([2]; P6 at 16 ppm, untreated 75%): 4%; PHAKPA (F129L) Disease level (%), P6 at 16 ppm [2, 6]: 0% |
| CNC(=O)/C(=N/OC)c1cccc(C)c1CO/N=C(\C)c1cc(F)ccc1F [Ex. 131] |  |  |  |  | PHAKPA (F129L) Disease level (%), P2 at 16 ppm ([1]; 16 ppm): 0%; % PHAKPA (F129L) Disease level, P2 at 4 ppm [1, 4]: 0%; % PHAKPA (F129L) Disease level, P2 at 16 ppm [1, 5]: 0%; PHAKPA (F129L) Disease level (%), P6 at 16 ppm [2, 6]: 0%; % PHAKPA (F129L) Disease level, P6 at 4 ppm [2, 7]: 2%; % PHAKPA (F129L) Disease level, P6 at 16 ppm [2, 8]: 0% |
| CO/C=C(/C(=O)OC)c1cccc(C)c1CO/N=C(\C)c1cccc(C(F)(F)F)c1 [Ex. 231] | 0% | 0% | 2% | 0% | PHAKPA (F129L) Disease level (%) P2 at 4 ppm ([1]; Table C2, protective, inoculation 2 days after spraying, 4 ppm, % diseased leaf area on soybean, untreated 100): 0%; PHAKPA (F129L) Disease level (%) P6 at 4 ppm [2, 9]: 2% |
| CO/C=C(/C(=O)OC)c1cccc(C)c1CO/N=C(\C)c1ccccc1C(F)(F)F [Ex. 244] | 14% | 0% | 15% | 2% | PHAKPA (F129L) Disease level (%), P2 at 16 ppm ([1]; 16 ppm): 0%; PHAKPA (F129L) Disease level (%), P6 at 16 ppm [2, 6]: 2% |
| CO/N=C(/C(=O)OC)c1cccc(C)c1CO/N=C(\C)c1c(F)ccc(C(F)(F)F)c1F [compound 156] |  |  |  |  | % PHAKPA (F129L) Disease level, P2 at 4 ppm [1, 4]: 27%; % PHAKPA (F129L) Disease level, P2 at 16 ppm [1, 5]: 0%; % PHAKPA (F129L) Disease level, P6 at 4 ppm [2, 7]: 47%; % PHAKPA (F129L) Disease level, P6 at 16 ppm [2, 8]: 3% |
| CNC(=O)/C(=N/OC)c1cccc(C)c1CO/N=C(\C)c1ccc(OC)cc1OC(F)(F)F [compound 337] | 9% | 0% | 13% | 1% |  |
| CNC(=O)/C(=N/OC)c1cccc(C)c1CO/N=C(\C)c1c(F)cc(Br)cc1OC(F)(F)F [compound 355] | 34% | 7% | 48% | 4% |  |
| COC=C(C(=O)OC)c1cccc(C)c1CON=C(C)c1cc(F)c(F)cc1CC(F)(F)F [compound 405] | 97% | 27% | 70% | 27% |  |
| CNC(=O)/C(=N/OC)c1cccc(C)c1CO/N=C(\C)c1ccc(-c2ccccc2)cc1C(F)(F)F [compound 413] | 40% | 15% | 33% | 15% |  |
| CO/N=C(/C(=O)OC)c1cccc(C)c1CO/N=C(\C)c1ccc(-c2ccccc2)cc1C(F)(F)F [compound 414] | 53% | 9% | 53% | 15% |  |
| CON=C(C)c1ccc(C(C)=NOCc2c(C)cccc2C(=NOC)C(=O)OC)c(OC(F)(F)F)c1 [compound 418] | 70% | 33% | 73% | 57% |  |
| CO/N=C(/C(=O)OC)c1cccc(C)c1CO/N=C(\C)c1ccc(-c2ccc(F)cc2)cc1C(F)(F)F [compound 425] | 27% | 28% | 53% | 40% |  |
| CNC(=O)/C(=N/OC)c1cccc(C)c1CO/N=C(\C)c1ccc(-c2ccc(F)cc2)cc1C(F)(F)F [compound 426] | 7% | 1% | 27% | 10% |  |
| CNC(=O)/C(=N/OC)c1cccc(C)c1CO/N=C(\C)c1ccc(Cl)c(F)c1OC(F)(F)F [compound 449] | 33% | 10% | 57% | 9% |  |
| COC=C(C(=O)OC)c1cccc(C)c1CON=C(C)c1ccc(F)c(F)c1OC(F)(F)F [compound 450] | 3% | 1% | 4% | 1% |  |
| CO/C=C(/C(=O)OC)c1cccc(C)c1CO/N=C(\C)c1ccc(Cl)c(F)c1OC(F)(F)F [compound 452] | 60% | 6% | 70% | 14% |  |
| CNC(=O)/C(=N/OC)c1cccc(OC)c1CO/N=C(\C)c1cccc(C(F)(F)F)c1 [compound 461] | 26% | 2% | 52% | 6% |  |
| CO/C=C(/C(=O)OC)c1cccc(C)c1CO/N=C(\C)c1ccccc1OC(F)(F)F [compound 462] | 37% | 6% | 55% | 10% |  |
| CO/C=C(/C(=O)OC)c1cccc(C)c1CO/N=C(\C)c1ccc(OC(F)(F)F)cc1Cl [compound 463] | 6% | 0% | 3% | 0% |  |
| CO/C=C(/C(=O)OC)c1cccc(C)c1CO/N=C(\C)c1ccc(OC)cc1C(F)(F)F [compound 464] | 1% | 0% | 8% | 0% |  |
| CO/N=C(/C(=O)OC)c1cccc(C)c1CO/N=C(\C)c1cccc(OC(F)(F)F)c1 [drawing 939, reference compound] |  |  |  |  | Fungal growth (%) PYRIOR (Pyricularia oryzae; Table C8a): 100% |
| CNC(=O)/C(=N/OC)c1ccccc1CO/N=C(\C)c1cc(F)ccc1F [reference compound] |  |  |  |  | PHAKPA (F129L) Disease level (%), P2 at 16 ppm ([1]; 16 ppm): 1%; PHAKPA (F129L) Disease level (%), P6 at 16 ppm [2, 6]: 22% |
